For this assay, the target named is T1, Human BCL-XL protein (N-terminal HiBiT tagged BCL-XL in HT1080 cells) (Homo sapiens, UniProt Q07817).
T1 construct: expressed in transfected cells; host or cells: HT-1080 (ATCC CCL-121), stably transduced with lentivirus pLV-UBC-N-HiBiT-BCL-XL-PGK-puro and selected with puromycin
The experiment in a line: HiBiT based degradation assay. The conditions noted are these: HT1080 cells expressing HiBiT-BCL-XL, 24 h; for Ymin (24 h): BCL-XL degradation normalized with DMSO control; for DC50: BCL-XL degradation, read-out: EC50 (24 h). It counts as cell-based. In short, it runs like this:
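This HiBiT degradation assay measured loss of BCL-XL in HT1080 cells that stably express an N-terminal HiBiT-BCL-XL fusion delivered by lentivirus. Cells were added to compound-spotted 384-well plates, and luminescence was read on a PHERAstar FSX reader. Signal was expressed relative to DMSO controls, curves were fitted by four-parameter logistic regression, and for hook-shaped curves the Ymin point served as the bottom plateau when calculating EC50.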
A general note: The HiBiT peptide binds its large partner to form an active luciferase.

Consider 15 compounds from patent publication US20240238423A9, “TETRAHYDROISOQUINOLINE HETEROBIFUNCTIONAL BCL-XL DEGRADERS” (Treeline Biosciences, Inc., priority 2022, published 2024).

T1 sequence (Q07817 whole entry): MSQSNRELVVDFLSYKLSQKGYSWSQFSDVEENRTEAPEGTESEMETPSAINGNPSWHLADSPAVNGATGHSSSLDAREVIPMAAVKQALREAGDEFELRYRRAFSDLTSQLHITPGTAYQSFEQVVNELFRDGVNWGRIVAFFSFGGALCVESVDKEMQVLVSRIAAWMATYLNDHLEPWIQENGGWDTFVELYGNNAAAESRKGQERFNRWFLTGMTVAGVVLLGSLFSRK

In the case of `Cc1c(OCCC2CCN(CC3CCN(c4cccc5c(C6CCC(=O)NC6=O)nn(C)c45)CC3)CC2)cccc1-c1ccc(N2CCc3cccc(C(=O)Nc4nc5ccccc5s4)c3C2)nc1C(=O)O` (stereo not drawn) [Compound 261, 6-[8-(1,3-benzothiazol-2-ylcarbamoyl)-3,4-dihydro-1H-isoquinolin-2-yl]-3-[3-[2-[1-[[1-[3-(2,6-dioxo-3-piperidyl)-1-methyl-indazol-7-yl]-4-piperidyl]methyl]-4-piperidyl]ethoxy]-2-methyl-phenyl]pyridine-2-carboxylic acid], the “Ymin (24 h)” value is listed as “A (Ymin < 50%)” and the DC50 is under 100 nM.

As for `Cc1cc(OCCCC2(C)CCN(CC(=O)Nc3ccc4c(C5CCC(=O)NC5=O)nn(C)c4c3)CC2)ccc1-c1ccc(N2CCc3cccc(C(=O)Nc4nc5ccccc5s4)c3C2)nc1C(=O)O` (stereo not drawn) [Compound 264, 6-[8-(1,3-benzothiazol-2-ylcarbamoyl)-3,4-dihydro-1H-isoquinolin-2-yl]-3-[4-[3-[1-[2-[[3-(2,6-dioxo-3-piperidyl)-1-methyl-indazol-6-yl]amino]-2-oxo-ethyl]-4-methyl-4-piperidyl]propoxy]-2-methyl-phenyl]pyridine-2-carboxylic acid], the “Ymin (24 h)” value is “A (Ymin < 50%)” and the DC50 is under 100 nM.

With `Cc1cc(OCC2CC3(CCN(CC(=O)Nc4ccc5c(C6CCC(=O)NC6=O)nn(C)c5c4)CC3)C2)ccc1-c1ccc(N2CCc3cccc(C(=O)Nc4nc5ccccc5s4)c3C2)nc1C(=O)O` (stereo not drawn) [Compound 265, 6-(8-(benzo[d]thiazol-2-ylcarbamoyl)-3,4-dihydroisoquinolin-2(1H)-yl)-3-(4-((7-(2-((3-(2,6-dioxopiperidin-3-yl)-1-methyl-1H-indazol-6-yl)amino)-2-oxoethyl)-7-azaspiro[3.5]nonan-2-yl)methoxy)-2-methylphenyl)picolinic acid], the “Ymin (24 h)” value is “A (Ymin < 50%)” and the DC50 was under 100 nM.

Turning to `Cc1c(OCCCC2(C)CCN(CC(=O)Nc3ccc4c(C5CCC(=O)NC5=O)nn(C)c4c3)CC2)cccc1-c1ccc(N2CCc3cccc(C(=O)Nc4nc5ccccc5s4)c3C2)nc1C(=O)O` (stereo not drawn) [Compound 267, 6-[8-(1,3-benzothiazol-2-ylcarbamoyl)-3,4-dihydro-1H-isoquinolin-2-yl]-3-[3-[3-[1-[2-[[3-(2,6-dioxo-3-piperidyl)-1-methyl-indazol-6-yl]amino]-2-oxo-ethyl]-4-methyl-4-piperidyl]propoxy]-2-methyl-phenyl]pyridine-2-carboxylic acid], the “Ymin (24 h)” value is on record as “A (Ymin < 50%)” and the DC50 was under 100 nM.

Take `Cc1c(O[C@H]2CC[C@H](CCCN3CCC(c4ccc5c(C6CCC(=O)NC6=O)nn(C)c5c4)CC3)CC2)cccc1-c1ccc(N2CCc3cccc(C(=O)Nc4nc5ccccc5s4)c3C2)nc1C(=O)O` (stereo partly drawn) [Compound 269a, 6-(8-(benzo[d]thiazol-2-ylcarbamoyl)-3,4-dihydroisoquinolin-2(1H)-yl)-3-(3-(((1s,4r)-4-(3-(4-(3-(2,6-dioxopiperidin-3-yl)-1-methyl-1H-indazol-6-yl)piperidin-1-yl)propyl)cyclohexyl)oxy)-2-methylphenyl)picolinic acid]: the “Ymin (24 h)” value is listed as “A (Ymin < 50%)” and the DC50 is under 100 nM.

For `Cc1c(O[C@H]2CC[C@H](CCCN3CCC(c4cccc5c(C6CCC(=O)NC6=O)nn(C)c45)CC3)CC2)cccc1-c1ccc(N2CCc3cccc(C(=O)Nc4nc5ccccc5s4)c3C2)nc1C(=O)O` (stereo partly drawn) [Compound 270a, 6-(8-(benzo[d]thiazol-2-ylcarbamoyl)-3,4-dihydroisoquinolin-2(1H)-yl)-3-(3-(((1s,4r)-4-(3-(4-(3-(2,6-dioxopiperidin-3-yl)-1-methyl-1H-indazol-7-yl)piperidin-1-yl)propyl)cyclohexyl)oxy)-2-methylphenyl)picolinic acid], the “Ymin (24 h)” value is “A (Ymin < 50%)” and the DC50 was under 100 nM.

Turning to `Cc1c(O[C@H]2CC[C@H](CCCN3CCN(c4ccc5c(C6CCC(=O)NC6=O)nn(C)c5c4)C[C@H]3C)CC2)cccc1-c1ccc(N2CCc3cccc(C(=O)Nc4nc5ccccc5s4)c3C2)nc1C(=O)O` (stereo partly drawn) [Compound 273a, 6-(8-(benzo[d]thiazol-2-ylcarbamoyl)-3,4-dihydroisoquinolin-2(1H)-yl)-3-(3-(((1S,4r)-4-(3-((2R)-4-(3-(2,6-dioxopiperidin-3-yl)-1-methyl-1H-indazol-6-yl)-2-methylpiperazin-1-yl)propyl)cyclohexyl)oxy)-2-methylphenyl)picolinic acid], the “Ymin (24 h)” value is recorded as “A (Ymin < 50%)” and the DC50 is under 100 nM.

For `Cc1c(O[C@H]2CC[C@H](CCCN3CCN(c4ccc5c(C6CCC(=O)NC6=O)nn(C)c5c4)C[C@@H]3C)CC2)cccc1-c1ccc(N2CCc3cccc(C(=O)Nc4nc5ccccc5s4)c3C2)nc1C(=O)O` (stereo partly drawn) [Compound 273b, 6-(8-(benzo[d]thiazol-2-ylcarbamoyl)-3,4-dihydroisoquinolin-2(1H)-yl)-3-(3-(((1R,4r)-4-(3-((2S)-4-(3-(2,6-dioxopiperidin-3-yl)-1-methyl-1H-indazol-6-yl)-2-methylpiperazin-1-yl)propyl)cyclohexyl)oxy)-2-methylphenyl)picolinic acid], the “Ymin (24 h)” value is “A (Ymin < 50%)” and the DC50 is under 100 nM.

On to `Cc1c(O[C@H]2CC[C@H](CCCN3CCN(c4cccc5c(C6CCC(=O)NC6=O)nn(C)c45)[C@H](C)C3)CC2)cccc1-c1ccc(N2CCc3cccc(C(=O)Nc4nc5ccccc5s4)c3C2)nc1C(=O)O` (stereo partly drawn) [Compound 274a, 6-(8-(benzo[d]thiazol-2-ylcarbamoyl)-3,4-dihydroisoquinolin-2(1H)-yl)-3-(3-(((1S,4r)-4-(3-((3R)-4-(3-(2,6-dioxopiperidin-3-yl)-1-methyl-1H-indazol-7-yl)-3-methylpiperazin-1-yl)propyl)cyclohexyl)oxy)-2-methylphenyl)picolinic acid], for which the “Ymin (24 h)” value is listed as “A (Ymin < 50%)” and the DC50 is under 100 nM.

Regarding `Cc1c(O[C@H]2CC[C@H](CCCN3CCN(c4cccc5c(C6CCC(=O)NC6=O)nn(C)c45)[C@@H](C)C3)CC2)cccc1-c1ccc(N2CCc3cccc(C(=O)Nc4nc5ccccc5s4)c3C2)nc1C(=O)O` (stereo partly drawn) [Compound 274b, 6-(8-(benzo[d]thiazol-2-ylcarbamoyl)-3,4-dihydroisoquinolin-2(1H)-yl)-3-(3-(((1R,4r)-4-(3-((3S)-4-(3-(2,6-dioxopiperidin-3-yl)-1-methyl-1H-indazol-7-yl)-3-methylpiperazin-1-yl)propyl)cyclohexyl)oxy)-2-methylphenyl)picolinic acid], the “Ymin (24 h)” value is on record as “A (Ymin < 50%)” and the DC50 is under 100 nM.

In the case of `Cc1c(O[C@H]2CC[C@H](CCCN3CCN(c4cccc5c(C6CCC(=O)NC6=O)nn(C)c45)C[C@H]3C)CC2)cccc1-c1ccc(N2CCc3cccc(C(=O)Nc4nc5ccccc5s4)c3C2)nc1C(=O)O` (stereo partly drawn) [Compound 275a, 6-(8-(benzo[d]thiazol-2-ylcarbamoyl)-3,4-dihydroisoquinolin-2(1H)-yl)-3-(3-(((1S,4r)-4-(3-((2R)-4-(3-(2,6-dioxopiperidin-3-yl)-1-methyl-1H-indazol-7-yl)-2-methylpiperazin-1-yl)propyl)cyclohexyl)oxy)-2-methylphenyl)picolinic acid], the “Ymin (24 h)” value is on record as “A (Ymin < 50%)” and the DC50 was under 100 nM.

Regarding `Cc1c(O[C@H]2CC[C@H](CCCN3CCN(c4cccc5c(C6CCC(=O)NC6=O)nn(C)c45)C[C@@H]3C)CC2)cccc1-c1ccc(N2CCc3cccc(C(=O)Nc4nc5ccccc5s4)c3C2)nc1C(=O)O` (stereo partly drawn) [Compound 275b, 6-(8-(benzo[d]thiazol-2-ylcarbamoyl)-3,4-dihydroisoquinolin-2(1H)-yl)-3-(3-(((1R,4r)-4-(3-((2S)-4-(3-(2,6-dioxopiperidin-3-yl)-1-methyl-1H-indazol-7-yl)-2-methylpiperazin-1-yl)propyl)cyclohexyl)oxy)-2-methylphenyl)picolinic acid], the “Ymin (24 h)” value is given as “C (Ymin ≥ 70%)” and the DC50 was under 100 nM.

For `Cc1c(OCCC2CC3(C2)CN(CC(=O)Nc2ccc4c(C5CCC(=O)NC5=O)nn(C)c4c2)C3)cccc1-c1ccc(N2CCc3cccc(C(=O)Nc4nc5ccccc5s4)c3C2)nc1C(=O)O` (stereo not drawn) [Compound 277, 6-(8-(benzo[d]thiazol-2-ylcarbamoyl)-3,4-dihydroisoquinolin-2(1H)-yl)-3-(3-(2-(2-(2-((3-(2,6-dioxopiperidin-3-yl)-1-methyl-1H-indazol-6-yl)amino)-2-oxoethyl)-2-azaspiro[3.3]heptan-6-yl)ethoxy)-2-methylphenyl)picolinic acid], the “Ymin (24 h)” value is “A (Ymin < 50%)” and the DC50 was under 100 nM.

In the case of `Cc1c(O[C@H]2CC[C@H](CCCN3CCN(c4ccc5c(C6CCC(=O)NC6=O)nn(C)c5c4)[C@H](C)C3)CC2)cccc1-c1ccc(N2CCc3cccc(C(=O)Nc4nc5ccccc5s4)c3C2)nc1C(=O)O` (stereo partly drawn) [Compound 278a, 6-(8-(benzo[d]thiazol-2-ylcarbamoyl)-3,4-dihydroisoquinolin-2(1H)-yl)-3-(3-(((1S,4r)-4-(3-((3R)-4-(3-(2,6-dioxopiperidin-3-yl)-1-methyl-1H-indazol-6-yl)-3-methylpiperazin-1-yl)propyl)cyclohexyl)oxy)-2-methylphenyl)picolinic acid], the “Ymin (24 h)” value is “A (Ymin < 50%)” and the DC50 was under 100 nM.

As for `Cc1c(O[C@H]2CC[C@H](CCCN3CCN(c4ccc5c(C6CCC(=O)NC6=O)nn(C)c5c4)[C@@H](C)C3)CC2)cccc1-c1ccc(N2CCc3cccc(C(=O)Nc4nc5ccccc5s4)c3C2)nc1C(=O)O` (stereo partly drawn) [Compound 278b, 6-(8-(benzo[d]thiazol-2-ylcarbamoyl)-3,4-dihydroisoquinolin-2(1H)-yl)-3-(3-(((1R,4r)-4-(3-((3S)-4-(3-(2,6-dioxopiperidin-3-yl)-1-methyl-1H-indazol-6-yl)-3-methylpiperazin-1-yl)propyl)cyclohexyl)oxy)-2-methylphenyl)picolinic acid], the “Ymin (24 h)” value was “A (Ymin < 50%)” and the DC50 is under 100 nM.
